Data on 11 compounds can be found in patent US8168592B2 (Amgen Inc., priority 2005, dated 2012).

Data set [1] can be described thus: in vitro stability in 10% rat plasma, LC-MS/MS. Conditions: room temperature; for % Remaining / remaining at 0.5 h, 100 ng/ml / remaining at 1 h, 100 ng/ml / remaining at 2 h, 100 ng/ml / remaining at 3 h, 100 ng/ml / remaining at 4 h, 100 ng/ml / remaining at 5 h, 100 ng/ml / remaining at 6 h, 100 ng/ml: 100 ng/ml; for % Remaining: 0 h. In kind it is in vitro ADME. Here is the method:
(§1) Consequently, the stability of select, non-PEGylated analogs was evaluated in vitro in the presence of 10% rat or human plasma. Briefly, samples of each peptide were diluted to 100 ng/ml into PBS containing 10% of rat or human plasma. Each sample was then incubated at room temperature and analyzed by LC-MS/MS to quantitate the intact peptide remaining at select time points over 6 hours.

Data set [2] in a line: in vitro stability in 10% human plasma, LC-MS/MS. Type of data set: in vitro ADME. Particulars: room temperature; for % Remaining / remaining at 0.17 h, 100 ng/ml / remaining at 0.5 h, 100 ng/ml / remaining at 1 h, 100 ng/ml / remaining at 2 h, 100 ng/ml / remaining at 3 h, 100 ng/ml / remaining at 4 h, 100 ng/ml / remaining at 5 h, 100 ng/ml / remaining at 6 h, 100 ng/ml: 100 ng/ml; for % Remaining: 0 h. The method, then: as §1

Data set [3] has as its target T1, CGRP1 receptor (Homo sapiens, UniProt O60894+Q16602).
T1 construct: SK-N-MC cells express CRLR and RAMP1, which form CGRP1 receptor; endogenous in cells; host or cells: SK-N-MC human neuroblastoma cells
As to the kind of experiment: in vitro CGRP1 receptor mediated cAMP assay in SK-N-MC cells. Type of data set: cell-based. The method in brief:
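Human SK-N-MC neuroblastoma cells, which endogenously express CRLR/RAMP1, were plated two days before assay and preincubated in plasma-free medium for 15 minutes at room temperature. Cells were then lysed for 30 minutes at 37° C, and cAMP in the lysates was quantified by competitive cAMP-AP chemiluminescent ELISA.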

Data set [4] can be described thus: rat pharmacokinetic studies. Particulars: 2 mg/kg.
Experimental: Rat pharmacokinetic studies. […] There were three rats per group (n=3), each weighing 250-325 g. Each group received either a 2 mg/kg intravenous or subcutaneous discrete administration. The approximate dose volume was 0.3 mL per rat. Approximately 0.25 mL of whole blood was taken per time point at the following post-dose collection times for the intravenous groups (in hours): 0.083, 0.25, 0.5, 1, 2, 4, 6, 8, 24, 48, 72, 96 and the following time points for the subcutaneous groups (in hours): 0.25, 0.5, 1, 2, 4, 6, 8, 24, 48, 72, 96. Whole blood samples were collected in microtainer vials containing EDTA as anticoagulant and were kept on wet ice until processed for plasma. The plasma was obtained by centrifuging the whole blood for approximately 5 min at 11,500 rpm. Plasma was transferred to new tubes and stored frozen at approximately −70° C. until quantitative analysis. […] The individual sample concentrations for each time point were averaged (n=3) within a given dose group using Excel 2000 software. The averaged plasma concentration-time data were analyzed by noncompartmental methods using WinNonlin v.3.3 software. Nominal sample times were used in the pharmacokinetic analysis. The area under the concentration-time curve was calculated using the linear/log trapezoidal method to determine exposure.
[5] abbreviates: read-out: time at which 50% remains (converted).

Bounds are passed on as bounds.

T1 sequence (Q16602 23-461): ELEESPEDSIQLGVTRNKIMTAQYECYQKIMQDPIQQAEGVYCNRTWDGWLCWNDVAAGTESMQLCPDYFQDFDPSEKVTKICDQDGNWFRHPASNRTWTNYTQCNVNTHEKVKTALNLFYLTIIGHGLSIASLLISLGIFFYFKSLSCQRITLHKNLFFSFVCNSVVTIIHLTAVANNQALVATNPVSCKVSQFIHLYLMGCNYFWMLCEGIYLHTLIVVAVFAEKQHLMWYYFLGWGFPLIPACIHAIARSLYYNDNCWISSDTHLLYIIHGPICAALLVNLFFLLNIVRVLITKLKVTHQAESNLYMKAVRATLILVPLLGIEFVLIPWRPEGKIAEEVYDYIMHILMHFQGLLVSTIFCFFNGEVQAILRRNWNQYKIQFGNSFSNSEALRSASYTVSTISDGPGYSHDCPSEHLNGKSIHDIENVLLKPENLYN
T1 sequence (O60894 27-148): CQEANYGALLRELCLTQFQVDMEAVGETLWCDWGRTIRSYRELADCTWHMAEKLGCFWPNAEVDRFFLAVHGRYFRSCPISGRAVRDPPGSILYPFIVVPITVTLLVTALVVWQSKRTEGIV

For the compound “Ac-WVTHQLAGLLSQSGGVVRKNFVPTDVGPFAF-NH2 [compound 39]”, in data set [1], the “% Remaining” value worked out at 100.0%; the share remaining (usually what is left of the initial amount, in per cent) at 0.5 h, 100 ng/ml came out at 83.8%; the share remaining at 1 h, 100 ng/ml stood at 66.2%; the amount remaining at 2 h, 100 ng/ml turned out to be 29.9%. Further, in data set [1], the fraction remaining at 3 h, 100 ng/ml stood at 20.4%; the amount remaining at 4 h, 100 ng/ml stood at 11.8%; the share remaining at 5 h, 100 ng/ml was determined as 6.4%; the share remaining at 6 h, 100 ng/ml is 4%.
For “Ac-WVTHQLAGLLSQSGGVVRKNFVPTDVGPFAF-NH2 [SEQ ID NO:39]”, the “time at which about 10% of the starting concentration remains” value is recorded as “about 5 hours” in data set [1] and “about 4 hours” in data set [2]. In addition, the half-life at 100 ng/ml was ~1.5 h in data set [1] (setting [5]) and ~1 h in data set [2] (setting [5]).
Consider “Ac-WVTHRLAGLLSQSGGVVRKNFVPTDVGPFAF-NH2 [SEQ ID NO:37]”, for which the “time at which about 10% of the starting concentration remains” value is ~2.5 h in data set [1] and “about 1 hours” in data set [2]. The half-life at 100 ng/ml in data set [1] (read-out: time at which 50% depleted) is ~0.75 h; in data set [2] (read-out: time at which 50% depleted / detectable), < 0.5 h.
With “Ac-WVTHRLAGLLSQSGGVVRKNFVPTDVGPFAF-NH2 [compound 37]”, in data set [1], the “% Remaining” value is recorded as 100.0%; the fraction remaining at 0.5 h, 100 ng/ml was determined as 62.7%; the share remaining at 1 h, 100 ng/ml was 39.5%; the fraction remaining at 2 h, 100 ng/ml is 10.5%. In data set [1], this compound returned an amount remaining at 3 h, 100 ng/ml of 4.7%; a share remaining at 4 h, 100 ng/ml of 2.5%; an amount remaining at 5 h, 100 ng/ml of 1.3%; a share remaining at 6 h, 100 ng/ml of 0.7%.
`CC(=O)N[C@@H](Cc1c[nH]c2ccccc12)C(=O)N[C@H](C(=O)N[C@H](C(=O)N[C@@H](Cc1cnc[nH]1)C(=O)N[C@@H](CCCCNC(=N)N)C(=O)N[C@@H](CC(C)C)C(=O)N[C@@H](C)C(=O)NCC(=O)N[C@@H](CC(C)C)C(=O)N[C@@H](CC(C)C)C(=O)N[C@@H](CO)C(=O)N[C@@H](CCCCNC(=N)N)C(=O)N[C@@H](CO)C(=O)NCC(=O)NCC(=O)N[C@H](C(=O)N[C@H](C(=O)N[C@@H](CCCNC(=N)N)C(=O)N[C@@H](CCCCN)C(=O)N[C@@H](CC(N)=O)C(=O)N[C@@H](Cc1ccccc1)C(=O)N[C@H](C(=O)N1CCC[C@H]1C(=O)N[C@H](C(=O)N[C@@H](CC(=O)O)C(=O)N[C@H](C(=O)NCC(=O)N1CCC[C@H]1C(=O)N[C@@H](Cc1ccccc1)C(=O)N[C@@H](C)C(=O)N[C@@H](Cc1ccccc1)C(N)=O)C(C)C)[C@@H](C)O)C(C)C)C(C)C)C(C)C)[C@@H](C)O)C(C)C` [compound 25]: in data set [1], the “% Remaining” value came to 100.0%; the amount remaining at 0.5 h, 100 ng/ml stood at 76.9%; the share remaining at 1 h, 100 ng/ml stood at 58.1%; the fraction remaining at 2 h, 100 ng/ml is 27.5%. Moreover, in data set [1], the fraction remaining at 3 h, 100 ng/ml is 21.3%; the amount remaining at 4 h, 100 ng/ml worked out at 16.3%; the amount remaining at 5 h, 100 ng/ml was determined as 11%; the fraction remaining at 6 h, 100 ng/ml came to 7.1%.
Take `CC(=O)N[C@@H](Cc1c[nH]c2ccccc12)C(=O)N[C@H](C(=O)N[C@H](C(=O)N[C@@H](Cc1cnc[nH]1)C(=O)N[C@@H](CCCCNC(=N)N)C(=O)N[C@@H](CC(C)C)C(=O)N[C@@H](C)C(=O)NCC(=O)N[C@@H](CC(C)C)C(=O)N[C@@H](CC(C)C)C(=O)N[C@@H](CO)C(=O)N[C@@H](CCCCNC(=N)N)C(=O)N[C@@H](CO)C(=O)NCC(=O)NCC(=O)N[C@H](C(=O)N[C@H](C(=O)N[C@@H](CCCNC(=N)N)C(=O)N[C@@H](CCCCN)C(=O)N[C@@H](CC(N)=O)C(=O)N[C@@H](Cc1ccccc1)C(=O)N[C@H](C(=O)N1CCC[C@H]1C(=O)N[C@H](C(=O)N[C@@H](CC(=O)O)C(=O)N[C@H](C(=O)NCC(=O)N1CCC[C@H]1C(=O)N[C@@H](Cc1ccccc1)C(=O)N[C@@H](C)C(=O)N[C@@H](Cc1ccccc1)C(N)=O)C(C)C)[C@@H](C)O)C(C)C)C(C)C)C(C)C)[C@@H](C)O)C(C)C` [SEQ ID NO: 25]: in data set [2], the “% Remaining” value worked out at 100.0%; the share remaining at 0.17 h, 100 ng/ml was determined as 88.3%; the fraction remaining at 0.5 h, 100 ng/ml came out at 47.3%; the fraction remaining at 1 h, 100 ng/ml was 28.7%. In data set [2], this compound showed a fraction remaining at 2 h, 100 ng/ml of 11%; a share remaining at 3 h, 100 ng/ml of 5.4%; an amount remaining at 4 h, 100 ng/ml of 3.1%; a share remaining at 5 h, 100 ng/ml of 3.6%. This compound came in with an amount remaining at 6 h, 100 ng/ml in data set [2] of 2.8%.
Turning to “SEQ ID NO:32 (WVTHXLAGLLSXSGGVVRKNFVPTDVGPFAF; CGRP peptide; MOD_RES (1)..(1): …ON; MISC_FEATURE (5)..(5): xaa=citrulline; MISC_FEATURE (12)..(12): xaa=citrulline; MISC_FEATURE (19)..(19): PEGylated; MOD_RES (31)..(31): AMIDATION)”, the “antagonist activity in cAMP assay, in words” value in data set [3] is listed as “relatively minor loss of in vitro antagonist activity”. Also, the “mean residence time (MRT) longer compared to SEQ ID NO:15” value in data set [4] (intravenous) came to 4 times. In data set [4] (subcutaneous), the “bioavailablity (F %)” value came to 47% and the “exposure (AUC) increase compared to SEQ ID NO:15” value is reported as “about 15 fold”.
Take “Ac-WVTHQLAGLLSQSGGVVRKNFVPTDVGPFAF-NH2 [SEQ ID NO: 39]”: in data set [2], the “% Remaining” value turned out to be 100.0%; the amount remaining at 0.17 h, 100 ng/ml was 74.2%; the fraction remaining at 0.5 h, 100 ng/ml was determined as 54%; the share remaining at 1 h, 100 ng/ml is 50.2%. In data set [2], this compound registered a fraction remaining at 2 h, 100 ng/ml of 36.7%; an amount remaining at 3 h, 100 ng/ml of 15.8%; a share remaining at 4 h, 100 ng/ml of 11.3%; a share remaining at 5 h, 100 ng/ml of 6.3%. This compound showed a fraction remaining at 6 h, 100 ng/ml in data set [2] of 5.2%.
Take “SEQ ID NO: 26: PEGylated double homoarginine analog (WVTHXLAGLLSXSGGVVRKNFVPTDVGPFAF; PEGylated; homoarginine residues; CGRP peptide; MOD_RES (1)..(1): …ON; MISC_FEATURE (5)..(5): xaa=homoarginine; MISC_FEATURE (12)..(12): xaa=homoarginine; MISC_FEATURE (19)..(19): PEGylated; MOD_RES (31)..(31): AMIDATION)”: in data set [4] (rat, IV, mean, n = 3), the AUC0-inf was 24555 ng·h/mL; the AUC0-t is 24546 ng·h/mL; the CL turned out to be 1.35 mL/min/kg; the mean residence time (MRT) (as a rule, a mean duration of stay, worked out from the concentration-time curve) is recorded as 1.01 h. Also, in data set [4] (rat, IV, mean, n = 3), the Vss (usually a proportionality between amount in the body and measured concentration, not a real space) was 0.083 L/kg; the t1/2 turned out to be 7.39 h. Also, in data set [4] (rat, SC, mean, n = 3), the “AUC0-inf” value came to 1204 ng·h/mL; the AUC0-t came to 1188 ng·h/mL; the CL/F (in general, clearance divided by bioavailability, as obtained after extravascular dosing) worked out at 27.67 mL/min/kg; the Cmax (in general, the peak of the concentration-time curve) is 143 ng/mL. In addition, in data set [4] (rat, SC, mean, n = 3), the Tmax (commonly the time from dosing to the highest level) was determined as 2.00 h and the t1/2 turned out to be 26.17 h.
In the case of “Ac-WVTHRLAGLLSQSGGVVRKNFVPTDVGPFAF-NH2 [SEQ ID NO: 37]”, in data set [2], the “% Remaining” value amounted to 100.0%; the amount remaining at 0.17 h, 100 ng/ml worked out at 59%; the share remaining at 0.5 h, 100 ng/ml amounted to 20.6%; the fraction remaining at 1 h, 100 ng/ml came to 10%. In data set [2], this compound displayed a share remaining at 2 h, 100 ng/ml of 2.3%; a share remaining at 3 h, 100 ng/ml of 1.3%; a fraction remaining at 4 h, 100 ng/ml of 0.7%; a fraction remaining at 5 h, 100 ng/ml of 0.7%. In data set [2], this compound yielded a share remaining at 6 h, 100 ng/ml of 0%.
In the case of `CC(=O)N[C@@H](Cc1c[nH]c2ccccc12)C(=O)N[C@H](C(=O)N[C@H](C(=O)N[C@@H](Cc1cnc[nH]1)C(=O)N[C@@H](CCCN=C(N)N)C(=O)N[C@@H](CC(C)C)C(=O)N[C@@H](C)C(=O)NCC(=O)N[C@@H](CC(C)C)C(=O)N[C@@H](CC(C)C)C(=O)N[C@@H](CO)C(=O)N[C@@H](CCCN=C(N)N)C(=O)N[C@@H](CO)C(=O)NCC(=O)NCC(=O)N[C@H](C(=O)N[C@H](C(=O)N[C@@H](CCCN=C(N)N)C(=O)N[C@@H](CCCCN)C(=O)N[C@@H](CC(N)=O)C(=O)N[C@@H](Cc1ccccc1)C(=O)N[C@H](C(=O)N1CCC[C@H]1C(=O)N[C@H](C(=O)N[C@@H](CC(=O)O)C(=O)N[C@H](C(=O)NCC(=O)N1CCC[C@H]1C(=O)N[C@@H](Cc1ccccc1)C(=O)N[C@@H](C)C(=O)N[C@@H](Cc1ccccc1)C(N)=O)C(C)C)[C@@H](C)O)C(C)C)C(C)C)C(C)C)[C@@H](C)O)C(C)C` [compound 7], the IC50 (usually the concentration needed to halve the response being measured) in data set [3] (Table 3, unconjugated CGRP peptide analogs, n = 2-4, read-out: IC50) came to 130 pM. In addition, in data set [1], the “% Remaining” value was determined as 100.0%; the share remaining at 0.5 h, 100 ng/ml came out at 55.4%; the share remaining at 1 h, 100 ng/ml came out at 34.5%; the amount remaining at 2 h, 100 ng/ml was 8%. Further, in data set [1], the amount remaining at 3 h, 100 ng/ml came out at 5.2%; the amount remaining at 4 h, 100 ng/ml amounted to 1.4%; the share remaining at 5 h, 100 ng/ml was found to be 1.7%; the fraction remaining at 6 h, 100 ng/ml is 0.6%.
